From patent US11851449B2, “Heterocyclic amide compounds having an RORvt inhibitory action” (TAKEDA PHARMACEUTICAL COMPANY LIMITED, priority 2013, dated 2023)

Key:
[1] = target: T1, RORγt (Homo sapiens, UniProt P51449); experiment: RORγt binding test (TR-FRET, fluorescent-labeled cholesterol); settings: read-out: binding inhibitory rate (%) of fluorescent-labeled cholesterol to RORγt at test compound 1 μM
T1 sequence (P51449 1-497 isoform P51449-2): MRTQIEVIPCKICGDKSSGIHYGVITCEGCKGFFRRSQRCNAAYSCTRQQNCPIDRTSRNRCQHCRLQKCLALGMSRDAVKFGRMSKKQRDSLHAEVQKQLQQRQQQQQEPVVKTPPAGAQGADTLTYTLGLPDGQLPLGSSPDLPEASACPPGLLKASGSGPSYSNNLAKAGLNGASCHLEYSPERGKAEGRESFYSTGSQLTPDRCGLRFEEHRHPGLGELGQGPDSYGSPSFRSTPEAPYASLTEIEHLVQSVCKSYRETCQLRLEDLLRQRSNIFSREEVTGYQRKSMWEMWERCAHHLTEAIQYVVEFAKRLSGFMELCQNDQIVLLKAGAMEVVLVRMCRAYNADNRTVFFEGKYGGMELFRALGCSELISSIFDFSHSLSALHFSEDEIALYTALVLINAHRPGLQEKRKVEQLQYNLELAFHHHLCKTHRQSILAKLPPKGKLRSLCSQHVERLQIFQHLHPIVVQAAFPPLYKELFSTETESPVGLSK
Method in brief: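 His-tagged RORγt and BODIPY-cholesterol were incubated with compound for 20 min at room temperature in Tris-HCl pH 7.5, 100 mM NaCl, 1 mM DTT and 0.1% BSA. Terbium anti-His antibody was then added for a further 20 min.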

[2] = target: T1, RORγt; experiment: Cofactor recruitment test (Alpha Screen, biotinylated SRC-1 peptide); assay type: biochemical; settings: read-out: signal value inhibitory rate (%) at test compound 1 μM
Experimental: Cofactor Recruitment Test
Cofactor recruitment test was performed by Alpha Screen (Histidine Detection Kit, PerkinElmer) method. First, a test compound was diluted with an assay buffer (50 mM Tris-HCl (pH 7.5), 50 mM KCl, 1 mM DTT, 0.1% BSA) and added to a 384 well plate by 5 μL. […] The mixture was stood in a dark place for 1 hr, and the signal value was measured by Envision (PerkinElmer).

[3] = target: T1, RORγt; experiment: Jurkat reporter test (human IL-17 ROR response element luciferase reporter); assay type: cell-based; settings: Jurkat, read-out: luminescence level inhibitory rate (%) at test compound 3 μM
Method in brief: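 Jurkat cells were electroporated (1350 V, 10 ms, 3 pulses) with reporter constructs, then cultured overnight with compound in RPMI containing 10% lipid-reduced FCS, 10 mM HEPES pH 7.5 and 5 μM lovastatin. Luciferase was quantified by Bright-Glo luminescence after 10 min at room temperature.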

| Compound | inhibition at 1 µM [1] | inhibition at 1 µM [2] | inhibition at 3 µM [3] |
| --- | --- | --- | --- |
| COc1ccc(C(NC(=O)Cc2ccn(C)n2)C(=O)Nc2ccc([Si](C)(C)C)cc2)cc1 (stereo not drawn) [Example 19, 2-(4-methoxyphenyl)-2-(((1-methyl-1H-pyrazol-3-yl)acetyl)amino)-N-(4-(trimethylsilyl)phenyl)acetamide] | 101% | 50.7% | 84.7% |
| COCc1ccc([C@H](C(=O)Nc2cc(F)c([Si](C)(C)C)c(F)c2)N(C)C(=O)c2cc(O)no2)cc1 [Example 77, N-((1R)-2-((3,5-difluoro-4-(trimethylsilyl)phenyl)amino)-1-(4-(methoxymethyl)phenyl)-2-oxoethyl)-3-hydroxy-N-methyl-1,2-oxazole-5-carboxamide] | 103% | 97.3% | 99.7% |
| CCC(=O)N[C@@H](C(=O)Nc1ccc([Si](C)(C)C)c(F)c1)c1ccc(COC)cc1 [Example 79, N-((1R)-2-((3-fluoro-4-(trimethylsilyl)phenyl)amino)-1-(4-(methoxymethyl)phenyl)-2-oxoethyl)propanamide] | 103% | 93% | 98.4% |
| COCc1ccc([C@@H](NC(=O)N2CC[C@H](O)C2)C(=O)Nc2ccc([Si](C)(C)C)c(F)c2)cc1 [Example 65, (3S)—N-((1R)-2-((3-fluoro-4-(trimethylsilyl)phenyl)amino)-1-(4-(methoxymethyl)phenyl)-2-oxoethyl)-3-hydroxypyrrolidine-1-carboxamide] | 102% | 94.3% | 98.5% |
| COCc1ccc([C@@H](NC(=O)CO)C(=O)Nc2ccc([Si](C)(C)C)c(F)c2)cc1 [Example 85, (2R)—N-(3-fluoro-4-(trimethylsilyl)phenyl)-2-(glycoloylamino)-2-(4-(methoxymethyl)phenyl)acetamide] | 103% | 90.1% | 99% |
| COCc1ccc([C@@H](NC(=O)[C@@H]2CNC(=O)C2)C(=O)Nc2cc(F)c([Si](C)(C)C)cc2F)cc1 [Example 51, (3S)—N-((1R)-2-((2,5-difluoro-4-(trimethylsilyl)phenyl)amino)-1-(4-(methoxymethyl)phenyl)-2-oxoethyl)-5-oxopyrrolidine-3-carboxamide] | 102% | 97.3% | 98% |
| Cn1ncc2cc(C(NC(=O)[C@@H]3CNC(=O)C3)C(=O)Nc3ccc([Si](C)(C)C)c(F)c3)ccc21 (mixture of isomers) [Example 109, (3S)—N-(2-((3-fluoro-4-(trimethylsilyl)phenyl)amino)-1-(1-methyl-1H-indazol-5-yl)-2-oxoethyl)-5-oxopyrrolidine-3-carboxamide] | 100% | 87.6% | 100% |
| COc1ccc(C(NC(=O)C2CNC(=O)C2)C(=O)Nc2ccc([Si](C)(C)C)c(F)c2)cc1 (stereo not drawn) [Example 28, N-(2-((3-fluoro-4-(trimethylsilyl)phenyl)amino)-1-(4-methoxyphenyl)-2-oxoethyl)-5-oxopyrrolidine-3-carboxamide] | 100% | 88% | 98% |
| COCc1ccc([C@@H](NC(=O)C2CCOCC2)C(=O)Nc2ccc([Si](C)(C)C)c(F)c2)cc1 [Example 88, N-((1R)-2-((3-fluoro-4-(trimethylsilyl)phenyl)amino)-1-(4-(methoxymethyl)phenyl)-2-oxoethyl)tetrahydro-2H-pyran-4-carboxamide] | 103% | 90.7% | 98.1% |
| COc1ccc(C(NC(=O)Cn2ncc3ccccc32)C(=O)Nc2cc(F)c([Si](C)(C)C)cc2F)cc1 (stereo not drawn) [Example 46, N-(2,5-difluoro-4-(trimethylsilyl)phenyl)-2-((1H-indazol-1-ylacetyl)amino)-2-(4-methoxyphenyl)acetamide] | 99.5% | 87.2% | 101% |
| COCc1ccc(C(NC(=O)Cc2nnc(C)o2)C(=O)Nc2cc(F)c([Si](C)(C)C)cc2F)cc1 (stereo not drawn) [Example 44, N-(2,5-difluoro-4-(trimethylsilyl)phenyl)-2-(4-(methoxymethyl)phenyl)-2-(((5-methyl-1,3,4-oxadiazol-2-yl)acetyl)amino)acetamide] | 102% | 95.7% | 102% |
| COCc1ccc(C(NC(=O)C2CNC(=O)C2)C(=O)Nc2ccc([Si](C)(C)C)c(C#N)c2)cc1 (stereo not drawn) [Example 26, N-(2-((3-cyano-4-(trimethylsilyl)phenyl)amino)-1-(4-(methoxymethyl)phenyl)-2-oxoethyl)-5-oxopyrrolidine-3-carboxamide] | 103% | 99.5% | 97.6% |
| COCc1ccc([C@@H](NC(=O)Cc2nnc(C)o2)C(=O)Nc2cc(F)c([Si](C)(C)C)cc2F)cc1 [Example 56, (2R)—N-(2,5-difluoro-4-(trimethylsilyl)phenyl)-2-(4-(methoxymethyl)phenyl)-2-(((5-methyl-1,3,4-oxadiazol-2-yl)acetyl)amino)acetamide] | 102% | 97.7% | 100% |
| COCc1ccc(C(NC(=O)Cn2cnccc2=O)C(=O)Nc2cc(F)c([Si](C)(C)C)c(F)c2)cc1 (stereo not drawn) [Example 40, N-(3,5-difluoro-4-(trimethylsilyl)phenyl)-2-(4-(methoxymethyl)phenyl)-2-(((6-oxopyrimidin-1(6H)-yl)acetyl)amino)acetamide] | 101% | 98.7% | 100% |
| COCc1ccc([C@@H](NC(=O)CCC(F)(F)F)C(=O)Nc2ccc([Si](C)(C)C)c(F)c2)cc1 [Example 94, 4,4,4-trifluoro-N-((1R)-2-((3-fluoro-4-(trimethylsilyl)phenyl)amino)-1-(4-(methoxymethyl)phenyl)-2-oxoethyl)butanamide] | 102% | 91.5% | 101% |
| COCc1ccc([C@@H](NC(=O)CCC#N)C(=O)Nc2cc(F)c([Si](C)(C)C)c(F)c2)cc1 [Example 73, 3-cyano-N-((1R)-2-((3,5-difluoro-4-(trimethylsilyl)phenyl)amino)-1-(4-(methoxymethyl)phenyl)-2-oxoethyl)propanamide] | 103% | 96.7% | 97.9% |
| COCc1ccc(C(NC(=O)Cc2cc(O)no2)C(=O)Nc2cc(F)c([Si](C)(C)C)c(F)c2)cc1 (stereo not drawn) [Example 39, N-(3,5-difluoro-4-(trimethylsilyl)phenyl)-2-(((3-hydroxy-1,2-oxazol-5-yl)acetyl)amino)-2-(4-(methoxymethyl)phenyl)acetamide] | 103% | 99.6% | 100% |
| COCc1ccc([C@@H](NC(=O)Cn2cnccc2=O)C(=O)Nc2cc(F)c([Si](C)(C)C)c(F)c2)cc1 [Example 58, (2R)—N-(3,5-difluoro-4-(trimethylsilyl)phenyl)-2-(4-(methoxymethyl)phenyl)-2-(((6-oxopyrimidin-1(6H)-yl)acetyl)amino)acetamide] | 102% | 97.1% | 98.4% |
| COc1ccc([C@@H](NC(=O)[C@@H]2CNC(=O)C2)C(=O)Nc2ccc([Si](C)(C)C)c(F)c2)cc1 [Example 50, (3S)—N-((1R)-2-((3-fluoro-4-(trimethylsilyl)phenyl)amino)-1-(4-methoxyphenyl)-2-oxoethyl)-5-oxopyrrolidine-3-carboxamide] | 102% | 91.5% | 98% |
| COc1ccc([C@H](C(=O)Nc2cc(F)c([Si](C)(C)C)cc2F)N(C)C(=O)c2cc(O)no2)cc1 [Example 25, N-((1R)-2-((2,5-difluoro-4-(trimethylsilyl)phenyl)amino)-1-(4-methoxyphenyl)-2-oxoethyl)-3-hydroxy-N-methyl-1,2-oxazole-5-carboxamide] | 102% | 95.7% | 100% |
| COc1ccc(C(NC(=O)N2CC(O)C2)C(=O)Nc2ccc([Si](C)(C)C)c(F)c2)cc1 (stereo not drawn) [Example 30, N-(2-((3-fluoro-4-(trimethylsilyl)phenyl)amino)-1-(4-methoxyphenyl)-2-oxoethyl)-3-hydroxyazetidine-1-carboxamide] | 98.5% | 95.1% | 99.8% |
